Consider 20 compounds from patent US10072001B2, “Tank-binding kinase inhibitor compounds” (Gilead Sciences, Inc., priority 2014, dated 2018).

One test has as its target TBK1 (Homo sapiens (Human), UniProt Q9UHD2). As to the kind of experiment: TR-FRET kinase assay, TBK1. To be noted: read-out: TBK1-IC50; full length recombinant TBK1 2.5 nM, 2x Km ATP, 1 μM peptide, 240 min at 25° C.; geometric mean of minimum four determinations.
In another test the target is IKKε (Homo sapiens (Human), UniProt Q14164). As to the kind of experiment: TR-FRET kinase assay, IKKε. It is filed as biochemical. To be noted: full length recombinant IKKε 0.3 nM, 2x Km ATP, 1 μM peptide, 240 min at 25° C.; geometric mean of minimum four determinations. The text has this:
Biological Assay for TBK1 and IKKs:

TBK1, sequence (Q9UHD2 whole entry): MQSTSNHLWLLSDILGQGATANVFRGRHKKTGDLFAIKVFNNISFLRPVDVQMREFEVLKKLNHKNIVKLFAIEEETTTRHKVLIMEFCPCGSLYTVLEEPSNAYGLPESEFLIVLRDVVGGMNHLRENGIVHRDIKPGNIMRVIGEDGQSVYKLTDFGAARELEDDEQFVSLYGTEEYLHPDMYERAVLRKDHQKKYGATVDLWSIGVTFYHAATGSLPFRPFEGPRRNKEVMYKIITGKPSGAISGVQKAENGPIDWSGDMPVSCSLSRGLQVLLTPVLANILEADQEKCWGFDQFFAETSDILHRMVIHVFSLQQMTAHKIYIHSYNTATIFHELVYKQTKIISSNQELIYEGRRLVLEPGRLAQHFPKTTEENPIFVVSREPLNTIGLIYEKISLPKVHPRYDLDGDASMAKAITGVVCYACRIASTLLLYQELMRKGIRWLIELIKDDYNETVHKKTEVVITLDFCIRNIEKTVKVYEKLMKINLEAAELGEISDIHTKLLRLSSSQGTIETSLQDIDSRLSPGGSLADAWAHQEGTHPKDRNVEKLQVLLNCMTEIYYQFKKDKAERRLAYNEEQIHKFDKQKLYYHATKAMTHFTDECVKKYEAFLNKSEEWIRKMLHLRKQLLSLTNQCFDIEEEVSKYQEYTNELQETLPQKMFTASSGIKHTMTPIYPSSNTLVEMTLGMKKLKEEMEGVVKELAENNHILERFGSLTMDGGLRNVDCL
IKKε, sequence (Q14164 whole entry): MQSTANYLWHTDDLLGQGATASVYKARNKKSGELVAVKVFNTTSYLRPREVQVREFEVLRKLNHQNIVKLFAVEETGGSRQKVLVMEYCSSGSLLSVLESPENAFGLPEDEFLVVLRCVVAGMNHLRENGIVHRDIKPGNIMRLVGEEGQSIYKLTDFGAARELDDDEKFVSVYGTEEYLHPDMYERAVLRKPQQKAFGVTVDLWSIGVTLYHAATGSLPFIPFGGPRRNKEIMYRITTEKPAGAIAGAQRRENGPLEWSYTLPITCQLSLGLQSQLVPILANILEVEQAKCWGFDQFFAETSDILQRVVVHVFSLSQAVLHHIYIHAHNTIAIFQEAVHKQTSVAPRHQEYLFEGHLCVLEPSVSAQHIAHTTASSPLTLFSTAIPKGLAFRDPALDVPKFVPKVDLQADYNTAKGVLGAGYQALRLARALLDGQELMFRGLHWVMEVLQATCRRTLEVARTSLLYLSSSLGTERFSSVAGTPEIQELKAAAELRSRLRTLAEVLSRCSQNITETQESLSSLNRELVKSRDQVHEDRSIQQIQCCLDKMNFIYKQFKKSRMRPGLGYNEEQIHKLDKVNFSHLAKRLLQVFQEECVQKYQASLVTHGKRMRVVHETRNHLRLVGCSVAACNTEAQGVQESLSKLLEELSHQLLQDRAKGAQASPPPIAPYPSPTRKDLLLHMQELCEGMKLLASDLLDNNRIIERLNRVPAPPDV

On to `CC(C)(C)OC(=O)N1CC[C@@H](Oc2ccc(-c3ncnc4[nH]c(-c5ccc(N6CCOCC6)cc5)nc34)cc2C#N)C1` [Example 206, (R)-tert-butyl 3-(2-cyano-4-(8-(4-morpholinophenyl)-9H-purin-6-yl)phenoxy)pyrrolidine-1-carboxylate], for which the IC50 on TBK1 and at IKKε was above 1000 nM in each case.

Turning to `N#Cc1cc(-c2ccnc3[nH]c(-c4ccc(N)nc4)cc23)ccc1OC1CCOCC1` [Example 11, 5-(2-(6-aminopyridin-3-yl)-1H-pyrrolo[2,3-b]pyridin-4-yl)-2-((tetrahydro-2H-pyran-4-yl)oxy)benzonitrile], the IC50 on TBK1 worked out at 5.53 nM; at IKKε, 9.51 nM.

`N#CCC(=O)N1CC[C@@H](Oc2ccc(-c3ccnc4[nH]c(-c5ccc(N6CCOCC6)cc5)cc34)cc2C#N)C1` [Example 16, (R)-2-((1-(2-cyanoacetyl)pyrrolidin-3-yl)oxy)-5-(2-(4-morpholinophenyl)-1H-pyrrolo[2,3-b]pyridin-4-yl)benzonitrile]: the IC50 at TBK1 was 4.32 nM; on IKKε, 13.8 nM.

Consider `N#Cc1cc(-c2ccnc3[nH]c(C(=O)N4CCOCC4)cc23)ccc1OC1CCOCC1` [Example 116, 5-(2-(morpholine-4-carbonyl)-1H-pyrrolo[2,3-b]pyridin-4-yl)-2-((tetrahydro-2H-pyran-4-yl)oxy)benzonitrile], for which the concentration for half-maximal inhibition (IC50) on TBK1 was determined as 1000 nM; on IKKε, 667 nM.

As to `CC(O)C(=O)N1CC[C@@H](Oc2ccc(-c3ccnc4[nH]c(-c5ccc(N6CCOCC6)cc5)cc34)cc2C#N)C1` (stereo partly drawn) [Example 27, 2-(((3R)-1-(2-hydroxypropanoyl)pyrrolidin-3-yl)oxy)-5-(2-(4-morpholinophenyl)-1H-pyrrolo[2,3-b]pyridin-4-yl)benzonitrile], the IC50 at TBK1 was 6.54 nM; at IKKε, 13.4 nM.

As for `N#Cc1cc(-c2ncnc3[nH]c(-c4ccc(C5CCN(CC(F)F)CC5)cc4)nc23)ccc1OC1CCNCC1` [Example 260, 5-(8-(4-(1-(2,2-difluoroethyl)piperidin-4-yl)phenyl)-9H-purin-6-yl)-2-(piperidin-4-yloxy)benzonitrile], the IC50 at TBK1 was found to be 26 nM; on IKKε, 84.4 nM.

Consider `N#CCC(=O)N1CCC(Oc2ccc(-c3ccnc4[nH]c(-c5ccc(N6CCOCC6)cc5)cc34)cc2C#N)CC1` [Example 20, 2-((1-(2-cyanoacetyl)piperidin-4-yl)oxy)-5-(2-(4-morpholinophenyl)-1H-pyrrolo[2,3-b]pyridin-4-yl)benzonitrile], for which the IC50 on TBK1 amounted to 9.25 nM; at IKKε, 27.5 nM.

As to `N#Cc1cc(-c2ncnc3[nH]c(-c4ccc(OC(F)(F)F)cc4)cc23)ccc1OC1CCN(C(=O)CO)CC1` [Example 128, 2-((1-(2-hydroxyacetyl)piperidin-4-yl)oxy)-5-(6-(4-(trifluoromethoxy)phenyl)-7H-pyrrolo[2,3-d]pyrimidin-4-yl)benzonitrile], the IC50 came to 4.21 nM on TBK1 and 13.6 nM on IKKε.

With `CC(C)(C)n1cc(-c2cc3c(-c4ccc(OC5CCOCC5)c(C#N)c4)ccnc3[nH]2)cn1` [Example 53, 5-(2-(1-(tert-butyl)-1H-pyrazol-4-yl)-1H-pyrrolo[2,3-b]pyridin-4-yl)-2-((tetrahydro-2H-pyran-4-yl)oxy)benzonitrile], the IC50 on TBK1 amounted to 9.4 nM; on IKKε, 13.7 nM.

Turning to `CC(C)(C)OC(=O)N1CCC(Oc2ccc(-c3ncnc4[nH]c(-c5ccc(N6CCOCC6)c(F)c5)nc34)cc2C#N)CC1` [Example 245, tert-butyl 4-(2-cyano-4-(8-(3-fluoro-4-morpholinophenyl)-9H-purin-6-yl)phenoxy)piperidine-1-carboxylate], the IC50 on TBK1 and at IKKε was 1000 nM in each case.

Turning to `N#Cc1cc(-c2ncnc3[nH]c(-c4ccc(N5CCOCC5)cc4)cc23)ccc1CN1CCOCC1` [Example 112, 2-(morpholinomethyl)-5-(6-(4-morpholinophenyl)-7H-pyrrolo[2,3-d]pyrimidin-4-yl)benzonitrile], the IC50 on TBK1 came to 19.6 nM; at IKKε it was 85 nM.

For `N#Cc1cc(-c2cnnc3[nH]c(-c4ccc(N5CCOCC5)cc4)nc23)ccc1OC1CCOCC1` [Example 401, 5-(8-(4-morpholinophenyl)-9H-imidazo[4,5-c]pyridazin-6-yl)-2-((tetrahydro-2H-pyran-4-yl)oxy)benzonitrile], the IC50 at TBK1 and on IKKε was above 1000 nM in each case.

On to `N#Cc1cc(-c2ccnc3[nH]c(-c4ccc(N5CCN(C(=O)CO)CC5)cc4)cc23)ccc1OC1CCOCC1` [Example 56, 5-(2-(4-(4-(2-hydroxyacetyl)piperazin-1-yl)phenyl)-1H-pyrrolo[2,3-b]pyridin-4-yl)-2-((tetrahydro-2H-pyran-4-yl)oxy)benzonitrile], for which the IC50 was 2.02 nM at TBK1 and 15.8 nM on IKKε.

Turning to `CS(=O)(=O)N1CCN(c2ccc(-c3cc4c(-c5ccc(OC6CCOCC6)c(C#N)c5)ncnc4[nH]3)cc2)CC1` [Example 215, 5-(6-(4-(4-(methylsulfonyl)piperazin-1-yl)phenyl)-7H-pyrrolo[2,3-d]pyrimidin-4-yl)-2-((tetrahydro-2H-pyran-4-yl)oxy)benzonitrile], the figures for the IC50 on TBK1 and at IKKε were 1.42 nM and 3.15 nM, respectively.

On to `COc1ccc(-c2cc3c(-c4ccc(OC5CCN(C(=O)CO)CC5)c(C#N)c4)ncnc3[nH]2)cn1` [Example 130, 2-((1-(2-hydroxyacetyl)piperidin-4-yl)oxy)-5-(6-(6-methoxypyridin-3-yl)-7H-pyrrolo[2,3-d]pyrimidin-4-yl)benzonitrile], for which the IC50 at TBK1 worked out at 5.43 nM; on IKKε, 10.6 nM.

In the case of `N#Cc1cc(-c2ncnc3[nH]c(-c4ccc(N5CCOCC5)cc4)cc23)ccc1N1CC(O)C1` [Example 199, 2-(3-hydroxyazetidin-1-yl)-5-(6-(4-morpholinophenyl)-7H-pyrrolo[2,3-d]pyrimidin-4-yl)benzonitrile], the IC50 on TBK1 was 2.15 nM; on IKKε, 1000 nM.

In the case of `COc1ccc(-c2cc3c(-c4ccc(OC5CCNCC5)c(C#N)c4)ncnc3[nH]2)cc1` [Example 123, 5-(6-(4-methoxyphenyl)-7H-pyrrolo[2,3-d]pyrimidin-4-yl)-2-(piperidin-4-yloxy)benzonitrile], the IC50 came to 22.4 nM at TBK1 and 65.8 nM on IKKε.

For the compound `Cc1noc(C)c1-c1cc2c(-c3ccc(OC4CCOCC4)c(C#N)c3)ccnc2[nH]1` [Example 216, 5-(2-(3,5-dimethylisoxazol-4-yl)-1H-pyrrolo[2,3-b]pyridin-4-yl)-2-((tetrahydro-2H-pyran-4-yl)oxy)benzonitrile], the IC50 at TBK1 came to 67.6 nM; at IKKε, 121 nM.

In the case of `N#Cc1cccc(-c2ccnc3[nH]c(-c4ccc(N5CCOCC5)cc4)cc23)c1` [Example 79, 3-(2-(4-morpholinophenyl)-1H-pyrrolo[2,3-b]pyridin-4-yl)benzonitrile], the values for the IC50 on TBK1 and on IKKε were 28.2 nM and above 1000 nM, respectively.

Regarding `CC(C)(O)c1cccc(-c2cc3c(-c4ccc(OC5CCOCC5)c(C#N)c4)ccnc3[nH]2)c1` [Example 68, 5-(2-(3-(2-hydroxypropan-2-yl)phenyl)-1H-pyrrolo[2,3-b]pyridin-4-yl)-2-((tetrahydro-2H-pyran-4-yl)oxy)benzonitrile], the IC50 at TBK1 amounted to 10.6 nM; at IKKε it was 22.5 nM.

In general, IC50 refers to the concentration that inhibits the measured activity by half.
